Earlier results as cited in US20110038802A1, “METHOD OF DETERMINING ALANINE TRANSAMINASE (ALT) ACTIVITY BY 13C-MR DETECTION USING HYPERPOLARISED 13C-PYRUVATE” (priority 2008, published 2011).

Details: human full blood, 37° C.

CC(=O)C(=O)O [^13C1-pyruvate, sodium ^13C1-pyruvate]
T1 relaxation: about 42 s
